In PubChem BioAssay (NCI):
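Growth conditions: 96-well plates. Treatment: test compound, 48 hours, 5 concentrations. Analysis: linear interpolation between bracketing concentrations; unreached endpoints set to highest concentration. GI50 is the concentration that inhibits growth by half. TGI marks complete inhibition of growth.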

Tests used:
Experiment in all cases: NCI tumour cell line growth inhibition, 48 h
MDA-MB-435 = test system: MDA-MB-435
UACC-62 melanoma = test system: UACC-62 melanoma
COLO 205 colon = test system: COLO 205 colon
HOP-92 NSCLC = test system: HOP-92 NSCLC
MALME-3M melanoma = test system: MALME-3M melanoma
HOP-62 NSCLC = test system: HOP-62 NSCLC
OVCAR-3 ovarian = test system: OVCAR-3 ovarian
PC-3 prostate = test system: PC-3 prostate
U251 CNS = test system: U251 CNS
A549 NSCLC = test system: A549 NSCLC
KM12 colon = test system: KM12 colon
HT29 colon = test system: HT29 colon
NCI/ADR-RES ovarian = test system: NCI/ADR-RES ovarian
SF-295 CNS = test system: SF-295 CNS
CCRF-CEM leukemia = test system: CCRF-CEM leukemia
SNB-75 CNS = test system: SNB-75 CNS
HL-60(TB) leukemia = test system: HL-60(TB) leukemia
K-562 leukemia = test system: K-562 leukemia
OVCAR-8 ovarian = test system: OVCAR-8 ovarian
RPMI-8226 leukemia = test system: RPMI-8226 leukemia
MOLT-4 leukemia = test system: MOLT-4 leukemia
OVCAR-5 ovarian = test system: OVCAR-5 ovarian
TK-10 renal = test system: TK-10 renal
CAKI-1 renal = test system: CAKI-1 renal
UACC-257 melanoma = test system: UACC-257 melanoma
NCI-H23 lung = test system: NCI-H23 lung
HS 578T breast = test system: HS 578T breast
HCT-116 colon = test system: HCT-116 colon
NCI-H522 lung = test system: NCI-H522 lung
BT-549 breast = test system: BT-549 breast
MCF7 breast = test system: MCF7 breast
NCI-H226 lung = test system: NCI-H226 lung
SNB-19 CNS = test system: SNB-19 CNS
SN12C renal = test system: SN12C renal
HCC-2998 colon = test system: HCC-2998 colon
EKVX NSCLC = test system: EKVX NSCLC
ACHN renal = test system: ACHN renal
RXF 393 renal = test system: RXF 393 renal
DU-145 prostate = test system: DU-145 prostate
M14 melanoma = test system: M14 melanoma
SK-MEL-2 melanoma = test system: SK-MEL-2 melanoma
UO-31 renal = test system: UO-31 renal
NCI-H460 lung = test system: NCI-H460 lung
SR leukemia = test system: SR leukemia
786-0 renal = test system: 786-0 renal
SF-268 CNS = test system: SF-268 CNS
OVCAR-4 ovarian = test system: OVCAR-4 ovarian
MDA-MB-231 breast = test system: MDA-MB-231 breast
T-47D breast = test system: T-47D breast
SK-MEL-28 melanoma = test system: SK-MEL-28 melanoma
HCT-15 colon = test system: HCT-15 colon
SK-OV-3 ovarian = test system: SK-OV-3 ovarian
SW-620 colon = test system: SW-620 colon
IGROV1 ovarian = test system: IGROV1 ovarian
SF-539 CNS = test system: SF-539 CNS
LOX IMVI melanoma = test system: LOX IMVI melanoma
SK-MEL-5 melanoma = test system: SK-MEL-5 melanoma

SMILES: O=S(=O)(Nc1cc(F)cc(F)c1)c1ccc(-c2cnc(C3CC3)o2)cc1
- GI50 (MDA-MB-435): 0.305 µM
- TGI (MDA-MB-435): 2.09 µM
- GI50 (UACC-62 melanoma): 0.94 µM
- TGI (UACC-62 melanoma): 20 µM
- GI50 (COLO 205 colon): 2.08 µM
- TGI (COLO 205 colon): 12.3 µM
- GI50 (HOP-92 NSCLC): 1.68 µM
- TGI (HOP-92 NSCLC): 11.4 µM
- GI50 (MALME-3M melanoma): 2.98 µM
- TGI (MALME-3M melanoma): 70.1 µM
- GI50 (HOP-62 NSCLC): 2.6 µM
- TGI (HOP-62 NSCLC): 33.6 µM
- GI50 (OVCAR-3 ovarian): 1.57 µM
- TGI (OVCAR-3 ovarian): 15.6 µM
- GI50 (PC-3 prostate): 1.99 µM
- TGI (PC-3 prostate): > 100 µM
- GI50 (U251 CNS): 3.28 µM
- TGI (U251 CNS): > 100 µM
- GI50 (A549 NSCLC): 3.8 µM
- TGI (A549 NSCLC): > 100 µM
- GI50 (KM12 colon): 0.869 µM
- TGI (KM12 colon): 32 µM
- GI50 (HT29 colon): 1.76 µM
- TGI (HT29 colon): 12.9 µM
- GI50 (NCI/ADR-RES ovarian): 1.7 µM
- TGI (NCI/ADR-RES ovarian): 68.1 µM
- GI50 (SF-295 CNS): 1.29 µM
- TGI (SF-295 CNS): 11.7 µM
- GI50 (CCRF-CEM leukemia): 2.44 µM
- TGI (CCRF-CEM leukemia): > 100 µM
- GI50 (SNB-75 CNS): 1.05 µM
- TGI (SNB-75 CNS): 3.98 µM
- GI50 (HL-60(TB) leukemia): 2.12 µM
- TGI (HL-60(TB) leukemia): 13.8 µM
- GI50 (K-562 leukemia): 0.582 µM
- TGI (K-562 leukemia): > 100 µM
- GI50 (OVCAR-8 ovarian): 4.31 µM
- TGI (OVCAR-8 ovarian): > 100 µM
- GI50 (RPMI-8226 leukemia): 3.44 µM
- TGI (RPMI-8226 leukemia): 66.2 µM
- GI50 (MOLT-4 leukemia): 3.73 µM
- TGI (MOLT-4 leukemia): > 100 µM
- GI50 (OVCAR-5 ovarian): 6.12 µM
- TGI (OVCAR-5 ovarian): > 100 µM
- GI50 (TK-10 renal): 8.65 µM
- TGI (TK-10 renal): 68.7 µM
- GI50 (CAKI-1 renal): 1.19 µM
- TGI (CAKI-1 renal): 38.4 µM
- GI50 (UACC-257 melanoma): 12.3 µM
- TGI (UACC-257 melanoma): 52.9 µM
- GI50 (NCI-H23 lung): 4.55 µM
- TGI (NCI-H23 lung): 77.1 µM
- GI50 (HS 578T breast): 1.83 µM
- TGI (HS 578T breast): 8.6 µM
- GI50 (HCT-116 colon): 3.04 µM
- TGI (HCT-116 colon): > 100 µM
- GI50 (NCI-H522 lung): 2.03 µM
- TGI (NCI-H522 lung): 40.4 µM
- GI50 (BT-549 breast): 3.33 µM
- TGI (BT-549 breast): 46.7 µM
- GI50 (MCF7 breast): 1.45 µM
- TGI (MCF7 breast): > 100 µM
- GI50 (NCI-H226 lung): 3.88 µM
- TGI (NCI-H226 lung): 53 µM
- GI50 (SNB-19 CNS): 3.73 µM
- TGI (SNB-19 CNS): > 100 µM
- GI50 (SN12C renal): 4.87 µM
- TGI (SN12C renal): 59.6 µM
- GI50 (HCC-2998 colon): 5.62 µM
- TGI (HCC-2998 colon): 44.2 µM
- GI50 (EKVX NSCLC): 5.31 µM
- TGI (EKVX NSCLC): > 100 µM
- GI50 (ACHN renal): 4.92 µM
- TGI (ACHN renal): > 100 µM
- GI50 (RXF 393 renal): 1.66 µM
- TGI (RXF 393 renal): 6.79 µM
- GI50 (DU-145 prostate): 4.11 µM
- TGI (DU-145 prostate): > 100 µM
- GI50 (M14 melanoma): 1.85 µM
- TGI (M14 melanoma): > 100 µM
- GI50 (SK-MEL-2 melanoma): 4.51 µM
- TGI (SK-MEL-2 melanoma): 41.6 µM
- GI50 (UO-31 renal): 4.69 µM
- TGI (UO-31 renal): > 100 µM
- GI50 (NCI-H460 lung): 2.64 µM
- TGI (NCI-H460 lung): 21.4 µM
- GI50 (SR leukemia): 0.513 µM
- TGI (SR leukemia): > 100 µM
- GI50 (786-0 renal): 5.05 µM
- TGI (786-0 renal): > 100 µM
- GI50 (SF-268 CNS): 6.73 µM
- TGI (SF-268 CNS): 48.8 µM
- GI50 (OVCAR-4 ovarian): 5.93 µM
- TGI (OVCAR-4 ovarian): 90.9 µM
- GI50 (MDA-MB-231 breast): 6.46 µM
- TGI (MDA-MB-231 breast): 41.7 µM
- GI50 (T-47D breast): 3.08 µM
- TGI (T-47D breast): 79.9 µM
- GI50 (SK-MEL-28 melanoma): 13.3 µM
- TGI (SK-MEL-28 melanoma): > 100 µM
- GI50 (HCT-15 colon): 0.702 µM
- TGI (HCT-15 colon): 47.9 µM
- GI50 (SK-OV-3 ovarian): 3.8 µM
- TGI (SK-OV-3 ovarian): 42 µM
- GI50 (SW-620 colon): 1.12 µM
- TGI (SW-620 colon): > 100 µM
- GI50 (IGROV1 ovarian): 2.01 µM
- TGI (IGROV1 ovarian): > 100 µM
- GI50 (SF-539 CNS): 2.52 µM
- TGI (SF-539 CNS): 14.6 µM
- GI50 (LOX IMVI melanoma): 4.34 µM
- TGI (LOX IMVI melanoma): > 100 µM
- GI50 (SK-MEL-5 melanoma): 3.27 µM
- TGI (SK-MEL-5 melanoma): 13.1 µM
